In brackets after ≈: the same amount, converted by molar mass.
Experiments:
[1] = target: T1, microtubule proteins originated from swine brain (Sus scrofa, UniProt P02550+P02554); assay: Tubulin polymerization inhibitory test (turbidity measurement); format: biochemical; details: microtubule proteins 2 mg/ml, GTP 1 mM, 37° C. for 30 min, absorbance at 340 nm; read-out: IC50 (tubulin polymerization inhibition) (converted)
T1 construct: Microtubule proteins was extracted from swine brain by the Shelansky method; from tissue; host or cells: swine brain
Procedure: Tubulin polymerization inhibitory test using microtubule proteins originated from swine brain: Microtubule proteins was extracted from swine brain by the Shelansky method(Tanpakusitu jikkenhou, Zoku-Seikagaku Jikken Kouza, Vol.6, “Structure and Function of Cytoskeleton” (1st Vol.), Tokyo Kagaku Dojin). Polymerization of microtubule proteins was assayed by turbidity measurement.
Change in turbidity can be measured by an absorptiometer. The compounds of the present invention were dissolved in dimethylsulfoxide to prepare their test solutions. To 245 μl of a RB solution containing microtubule proteins(2 mg/ml)and GTP(1 mM) was added 5μl of either an above test solution or dimethylsulfoxide to prepare a sample, which was incubated at 37° C. for 30 min. […] Absorbance at 340 nm of the compound was previously measured.
Inhibitory Rate(%)=[1−(T−Cmin)/(Cmax−Cmin)]×100
where T is absorbance of the incubated sample with a test compound, Cmax is absorbance of the incubated sample without the compound, and Cmin is the non-incubated sample without the compound.

[2] = tested on: A2780 (Humane Ovarian Cancer Cell); assay: Anti-tumor in vitro test using A2780 (MTT); format: cell-based; details: Homo sapiens, A2780, 72 h, 3 days incubation, absorbance at 540 nm, read-out: IC50 (A2780 growth inhibition)
Procedure: A2780 cells that were suspended on a RPMI 1640 culture medium containing 10% calf serum, penicillin (50 U/ml), and streptomycin (50 μg/ml were seeded in a 96 well flat microplate by 1000 cells (0.2 ml) well, and cultured in a 5% carbon dioxide atmospheric incubator at 37° C. for 1 day. The compounds of the present invention that were dissolved in dimetylsulfoxide anddiluted with a RPMI 1640 containing 10% calf serum to prepare the samples, provided that dimetylsulfoxide was restricted to 0.2% and below in concentration.
The Supernatant liquids of the above A2780 cells wells were removed by aspiration, and then each 0. 2 ml of the prepared samples were added to the wells, which were incubated in a 5% carbon dioxide atmospheric incubator at 37° C. for 3 days. After the incubation, each 0.01 ml of MTT solutions(3-(4,5-dimethylthiazole-2-yl)-2,5-dipheny-ltetra zolium bromide, 5 mg/ml) were added to the wells, which were incubated for another 2 hrs. After the supernatant liquids in the wells were removed by aspiration, the formazans formed in the wells were dissolved in 0.1 ml of dimetylsulfoxide, and absorbances at 540 nm were measured by a micro plate reader to determine indices of live cells counts in the wells.
Inhibitory Rate(%)=[(C−T)/C]×100
where T is absorbance in the well with a test compound and C is absorbance in the well without the compound.

[3] = tested on: collagen-induced arthritis in mice; assay: Prophylactic experiment of collagen-induced arthritis in mice; format: in vivo; details: last day of test
Procedure: The suspension of M. tuberculosis H37RA in Freund […] adjuvant (2 mg/ml) was mixed with 0.3% typeII collagen (extracted from bovine articular cartilage, Collagen Gijutsu KensyU Kai) in their equal amounts to form an emulsion, 0.1 ml of which was injected subcutaneously into the base of the tail of mice to sensitize it. After twenty-one days, 0.3% type II collagen was diluted with physiological saline solution to the one sixth concentration of the solution, 0.2 ml of which was injected intraperitoneally to sensitize secondarily. The mice that the first sensitizations caused to fall into arthritis were excluded from the test. The suspensions of the compounds(in the Example 13, 27, and 28) in 0.5% sodium carboxy methylcellulose (CMC—Na) were administrated orally to the test group mice once a day for 5 weeks from the day after the second sensitization. 0.5% CMC—Na solutions were administrated to the control group mice to be compared with. Each group was composed of eight mice. […] Scores and their standards are as follows.
1: Tumefaction or rubor in only one finger(or heel)
2: Tumefaction or rubor in two or above fingers (or heels) or in parts of fore (or hind) paw(s)
3: Tumefaction or rubor in the wholes of fore (or hind) paw(s) including joints
4: Ankylosis in the joints of finger(s) (or heel(s)) or fore (or hind) paw(s)

[4] = 50 mg/kg orally once a day for 5 weeks

T1 sequence (P02550 whole entry): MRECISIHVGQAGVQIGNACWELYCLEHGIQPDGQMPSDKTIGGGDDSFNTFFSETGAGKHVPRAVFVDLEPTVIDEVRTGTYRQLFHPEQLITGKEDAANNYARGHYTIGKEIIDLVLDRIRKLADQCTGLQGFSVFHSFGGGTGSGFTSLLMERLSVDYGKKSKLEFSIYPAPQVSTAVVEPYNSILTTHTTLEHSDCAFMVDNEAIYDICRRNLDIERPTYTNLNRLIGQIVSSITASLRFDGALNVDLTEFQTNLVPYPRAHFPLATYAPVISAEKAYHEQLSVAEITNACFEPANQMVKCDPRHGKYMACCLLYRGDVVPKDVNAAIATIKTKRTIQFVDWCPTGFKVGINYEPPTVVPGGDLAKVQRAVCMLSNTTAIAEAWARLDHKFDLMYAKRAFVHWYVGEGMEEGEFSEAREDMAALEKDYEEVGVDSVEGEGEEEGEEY
T1 sequence (P02554 whole entry): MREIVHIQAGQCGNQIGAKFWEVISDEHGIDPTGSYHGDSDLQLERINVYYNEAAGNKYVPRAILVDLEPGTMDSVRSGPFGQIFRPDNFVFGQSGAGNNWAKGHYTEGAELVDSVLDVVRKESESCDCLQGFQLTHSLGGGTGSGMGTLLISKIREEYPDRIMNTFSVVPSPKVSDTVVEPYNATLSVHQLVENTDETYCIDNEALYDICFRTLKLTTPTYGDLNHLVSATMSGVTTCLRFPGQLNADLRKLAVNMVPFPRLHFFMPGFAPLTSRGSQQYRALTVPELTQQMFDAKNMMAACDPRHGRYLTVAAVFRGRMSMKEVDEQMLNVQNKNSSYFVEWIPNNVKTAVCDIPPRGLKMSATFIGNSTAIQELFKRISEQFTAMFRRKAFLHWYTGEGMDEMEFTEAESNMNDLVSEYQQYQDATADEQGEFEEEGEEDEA

Row | SMILES | IC50 [1] [µM] | IC50 [2] [µg/mL] | Averaged score (arthritis, 0 to 4 per limb, maximum 16) ([3]; 25 mg/kg orally once a day for 5 weeks) | Averaged score (arthritis, 0 to 4 per limb, maximum 16) [3, 4]
1 | COc1ccc(S(=O)(=O)Nc2ccccc2NC(=O)C2CSCN2)cc1.Cl (racemic) [Example 15, (±)-N-[2-(4-Methoxybenzenesulfonamide)phenyl]-4-thiazolidine Carboxamide HCl Salt] | 4.3 | 0.025 | – | –
2 | COc1ccc(S(=O)(=O)Nc2ccccc2NC(=O)C2CCCCN2)cc1.Cl (racemic) [Example 20, (±)-N-[2-4-Methoxybenzenesulfonamide)phenyl]-2piperidine Carboxamide HCl Salt] | – | 6.8 | – | –
3 | COc1ccc(S(=O)(=O)Nc2ccccc2NC(=O)c2cnoc2C)cc1 [Example 1, N-[2-(4-Methoxybenzenesulfonamide)phenyl]-5-methyl-4-isoxazole Carboxamide] | 3.1 | 0.023 (≈ 0.0594 µM) | – | –
4 | COc1ccc(S(=O)(=O)Nc2ccccc2NC(=O)c2cn(C)nc2C)cc1 [Example 2, N-[2-(4-Methoxybenzenesulfonamide)phenyl]-3-dimethyl-4-(1H-pyrazole)carboxamide] | 89.9 | 0.58 (≈ 1.45 µM) | – | –
5 | COc1ccc(S(=O)(=O)Nc2ccccc2NC(=O)c2csc(C)n2)cc1 [Example 3, N-[2-(4-Methoxybenzenesulfonamide)phenyl]-2-methyl-4-thiazole Carboxamide] | 94.2 | 0.22 (≈ 0.545 µM) | – | –
6 | COc1ccc(S(=O)(=O)Nc2ccccc2NC(=O)c2csnc2C)cc1 [Example 4, N-[2-(4-Methoxybenzenesulfonamide)phenyl]-3-methyl-4-isothiazole Carboxamide] | 3.47 | 0.017 (≈ 0.0421 µM) | – | –
7 | COc1ccc(S(=O)(=O)Nc2ccccc2NC(=O)c2nc(C)oc2C)cc1 [Example 5, N-[2-(4-Methoxybenzenesulfonamide)phenyl]-2,5-dimethyl-4-oxazole Carboxamide] | – | 7.2 (≈ 17.9 µM) | – | –
8 | COc1ccc(S(=O)(=O)Nc2ccccc2NC(=O)c2cn(C)cn2)cc1 [Example 6, N-[2-(4-Methoxybenzenesulfonamide)phenyl]-1-methyl-1H-imidazole-4-carboxamide] | 101 | 0.14 (≈ 0.362 µM) | – | –
9 | Cc1ccc(S(=O)(=O)Nc2ccccc2NC(=O)c2cnoc2C)cc1 [Example 7, N-[2-(p-Toluenesulfonamide)phenyl]-5-methyl-4-isoxazole Carboxamide] | 13.7 | 0.2 (≈ 0.538 µM) | – | –
10 | Cc1oncc1C(=O)Nc1ccccc1NS(=O)(=O)c1ccccc1 [Example 8, N-[2-(Benzenesulfonamide)phenyl]-5-methyl-4-isoxazole Carboxamide] | 644 | 6.7 (≈ 18.7 µM) | – | –
11 | Cc1oncc1C(=O)Nc1ccccc1NS(=O)(=O)c1ccc(F)cc1 [Example 9, N-[2-(4-Fluorobenzenesulfonamide)phenyl]-5-methyl-4-isoxazole Carboxamide] | 400 | 13 (≈ 34.6 µM) | – | –
12 | COc1ccc(S(=O)(=O)Nc2ccccc2NC(=O)c2cnoc2C)cc1OC [Example 11, N-[2-(3,4-Dimethoxybenzenesulfonamide)phenyl]-5-methyl-4-isoxazole Carboxamide] | 359 | 0.68 (≈ 1.63 µM) | – | –
13 | COc1ccc(S(=O)(=O)Nc2ccccc2NC(=O)[C@@H]2CCCN2)cc1.Cl [Example 12, N-[2-(4-Methoxybenzenesulfonamide)phenyl]-(L)-prolinamide HCl Salt] | – | 9.7 | – | –
14 | COc1ccc(S(=O)(=O)Nc2ccccc2NC(=O)c2c(C)noc2C)cc1 [Example 13, N-[2-(4-Methoxybenzenesulfonamide)phenyl]-3,5-dimethyl-4-isoxazole Carboxamide] | 3.49 | 0.01 (≈ 0.0249 µM) | 2.3 ± 0.8 | 0.4 ± 0.4
15 | CCc1oncc1C(=O)Nc1ccccc1NS(=O)(=O)c1ccc(OC)cc1 [Example 14, N-[2-(4-Methoxybenzenesulfonamide)phenyl]-5-ethyl-4-isoxazole Carboxamide] | 4.11 | 0.036 (≈ 0.0897 µM) | – | –
16 | COc1ccc(S(=O)(=O)Nc2ccccc2NC(=O)[C@H]2CCCN2)cc1.Cl [Example 17] | – | 1.4 | – | –
17 | COc1ccc(S(=O)(=O)Nc2ccccc2NC(=O)c2ncoc2C)cc1 [Example 21, N-[2-(4-Methoxybenzenesulfonamide)phenyl]-5-methyl-4-oxazole Carboxamide] | 12.1 | 0.079 (≈ 0.204 µM) | – | –
18 | COc1ccc(S(=O)(=O)Nc2ccccc2NC(=O)C2CCCCC2)cc1 [Example 22, N-[2-(4-Methoxybenzenesulfonamide)phenyl]-cyclohexyl Carboxamide] | 4.89 | 0.14 (≈ 0.36 µM) | – | –
19 | COc1ccc(S(=O)(=O)Nc2ccccc2NC(=O)C2CC2)cc1 [Example 23, N-[2-(4-Methoxybenzenesulfonamide)phenyl]-cyclopropyl Carboxamid] | 3.46 | 0.006 (≈ 0.0173 µM) | – | –
20 | COc1ccc(S(=O)(=O)Nc2ccccc2NC(=O)C2CCC2)cc1 [Example 24, N-(2-(4-Methoxybenzenesulfonamide)phenyl]-cyclobutyl Carboxamid] | 3.19 | 0.006 (≈ 0.0166 µM) | – | –
21 | COc1ccc(S(=O)(=O)Nc2ccccc2NC(=O)C2CCCC2)cc1 [Example 25] | 4.14 | 0.05 (≈ 0.134 µM) | – | –
22 | COc1ccc(S(=O)(=O)Nc2ccccc2NC(=O)c2cccn2C)cc1 [Example 26, N-[2-(4-Methoxybenzenesulfonamide)phenyl]-N-methyl-2-pyrrole Carboxamide] | 4.93 | 0.034 (≈ 0.0882 µM) | – | –
23 | CCc1noc(C)c1C(=O)Nc1ccccc1NS(=O)(=O)c1ccc(OC)cc1 [Example 27, N-[2-(4-Methoxybenzenesulfonamide)phenyl]-3-ethyl-5-methyl-4-isoxazole Carboxamide] | 4.45 | 0.034 (≈ 0.0818 µM) | – | 1.7 ± 1.1
24 | CCc1onc(C)c1C(=O)Nc1ccccc1NS(=O)(=O)c1ccc(OC)cc1 [Example 28, N-[2-(4-Methoxybenzenesulfonamide)phenyl]-5-ethyl-3-methyl-4-isoxazole Carboxamide] | 3.13 | 0.013 (≈ 0.0313 µM) | – | 3.0 ± 1.1
25 | CCc1noc(CC)c1C(=O)Nc1ccccc1NS(=O)(=O)c1ccc(OC)cc1 [Example 29, N-[2-(4-Methoxybenzenesulfonamide)phenyl]-3,5-diethyl-4-isoxazole Carboxamide] | 9.2 | 0.14 (≈ 0.326 µM) | – | –
26 | COc1ccc(S(=O)(=O)Nc2ccccc2NC(=O)c2c(C)noc2C(C)C)cc1 [Example 30, N-[2-(4-Methoxybenzenesulfonamide)phenyl]-5-isopropyl-3-methyl-4-isoxazole Carboxamide] | 7.68 | 0.16 (≈ 0.373 µM) | – | –
27 | COc1ccc(S(=O)(=O)Nc2ccccc2NC(=O)c2c(-c3ccccc3)noc2C)cc1 [Example 31, N-[2-(4-Methoxybenzenesulfonamide)phenyl]-5-methyl-3-phenyl-4-isoxazole Carboxamide] | – | 0.3 (≈ 0.647 µM) | – | –
28 | COc1ccc(S(=O)(=O)Nc2ccccc2NC(=O)c2c(C)noc2-c2ccccc2)cc1 [Example 32, N-[2-(4-Methoxybenzenesulfonamide)phenyl]-3-methyl-5-phenyl-4-isoxazole Carboxamide] | – | 0.62 (≈ 1.34 µM) | – | –

From patent US6458960B1, “Sulfonamide derivatives” (Nippon Kayaku Kabushiki Kaisha, priority 1997, dated 2002)
